Data: PMC7339578, “Multiple circulating alkaloids and saponins from intravenous Kang-Ai injection inhibit human cytochrome P450 and UDP-glucuronosyltransferase isozymes: potential drug–drug interactions” (Chinese Medicine, 2020)

Experiments:
[1] = Plasma pharmacokinetics in rats after a 30-min intravenous infusion of Kang-Ai injection; assay type: in vivo, Sprague–Dawley rats; conditions: for Cmax: read-out: Cmax
Method: Specific pathogen free (SPF) grade male Sprague–Dawley rats (250 ± 20) g were provided by the Experimental Animal Center of Zhengzhou University (Zhengzhou, China). These rats were kept in a designated animal room at constant temperature (22 ± 2) °C and humidity (50 ± 20) % with 12 h of light/dark per day and free access to water and food. All protocols of animal experiments were approved in accordance with the Regulations of Experimental Animal Administration issued by the Ethics Review Committee for Animal Experimentation of Jinan University (Ethical Review NO. 20190301010). Prior to the experiments, the rats were fasted for 12 h but with free access to water. After study use, the rats were euthanized with CO2 gas.
The rats in this study all received a single 30-min intravenous infusion of Kang-Ai injection via the tail veins using TYD01-02 infusion pumps (Lead Fluid, Baoding, China). The dose was derived from the label daily dose of Kang-Ai injection (60 mL/person, once daily) according to dose normalization by body surface area. For plasma pharmacokinetic studies, the rats were randomly received a single intravenous 30 min-bolus dose at 6 mL/kg. Blood samples (100 μL) were collected from the rats’ external jugular veins into heparinized polypropylene tubes at 5, 15, 30, 45 min, and 1, 1.5, 2, 3, 4, 6, 8, 12 h. After gently shaking for 10 s, the blood samples were centrifuged at 13000 g for 10 min to yield plasma samples, which were kept frozen at − 80 °C until analysis.
(§1) Pharmacokinetic parameters were estimated by non-compartmental analysis using WinNonlin 6.3 software (Pharsight, NC, US). Data are presented as the mean ± SD (n = 3). The area under the concentration–time curve up to the last measured point in time (AUC0-t) was calculated using the trapezoidal rule. The total plasma clearance (CLtot, p) was calculated by dividing the compound dose by the AUC0-∞, and the distribution volume at steady state (VSS) was estimated by multiplying the CLtot, p by the mean residence time (MRT). The renal excretory clearance (CLR) and hepatobiliary (CLB) was determined by dividing the cumulative amount excreted into urine (Cum.Ae-U) and bile (Cum.Ae-B) by the plasma AUC0-∞, respectively. The fractions of dose excreted into urine (fe-U) and the fractions of dose excreted into bile (fe-B) were established using the relationship Cum.Ae-U/Dose and Cum.Ae-B/Dose, respectively. Mean differences between treatment and control groups were analyzed by two-tailed unpaired Student’s t test by Graphpad Prism V5 software (SanDiego, CA). The level of significance was set at p < 0.05 (∗), p < 0.01 (∗∗) or p < 0.001 (∗∗∗).

[2] = Urinary (renal) excretion in rats after a 30-min infusion of Kang-Ai injection; assay type: in vivo, Sprague–Dawley rats; conditions: rat urine 0–12 h; Kang-Ai injection 6 mL/kg iv
Method: (§2) For urine sampling, the rats were housed singly in metabolic cages. And then, the urine samples were collected at 0–4, 4–8 and 8–12 h after starting infusion and were weighed. Likewise, bile samples were also collected at 0–3, 3–6, 6–9 and 9–12 h after starting infusion and were weighed. The urine and bile collection tubes were all frozen at − 80 °C.
as §1

[3] = Protein binding assay (equilibrium dialysis); assay type: in vitro ADME, rat; conditions: rat plasma
Method: Binding of circulating alkaloids and saponins to rat plasma was measured by equilibrium dialysis using Spectra/Por 2 dialysis membranes (molecular weight cutoff, 12–14 kDa; Rancho Dominguez, CA, USA) as described. After equilibrating for 24 h at 55 rpm and 37 °C, the dialysate and the plasma were sampled for analysis. […] The concentrations of tested matrine, oxysophocarpine and oxymatrine were 2 μmol/L, while those of astragaloside IV, III, and ginsenosides Rh1, Rg2, Rg1, Rf, Re, Rd, Rc, Rb1, Rb2, notoginsenosides R1, R2, were 4 μmol/L. The unbound fraction (fu-plasma) in rat plasma was calculated as follow: fu-plasma = Cd/Cp × 100%, where the Cd and Cp values were the concentrations of each analyte in the dialysate sample and in the post-dialysis plasma sample, respectively.

[4] = Stability tests of analytes in rat plasma QC samples; assay type: in vitro ADME; conditions: rat plasma
Method: […] The dilution integrity was investigated by analyzing six replicate samples with each analyte, and each analyte were diluted 10-fold with blank rat matrix. Furthermore, the diluted samples were analyzed using freshly prepared calibration curve to calculate RE and RSD, which should be no more than ± 15% as criterion.

[5] = Biliary (hepatobiliary) excretion in rats after a 30-min infusion of Kang-Ai injection; assay type: in vivo, Sprague–Dawley rats; conditions: rat bile 0–12 h; Kang-Ai injection 6 mL/kg iv
Method: as §2, §1

[6] = rat plasma, 30-min iv infusion of Kang-Ai injection 6 mL/kg

SMILES: CC(C)(O)[C@@H]1CC[C@](C)([C@H]2[C@@H](O)C[C@@]3(C)[C@@H]4C[C@H](O)[C@H]5C(C)(C)[C@@H](O[C@@H]6OC[C@@H](O)[C@H](O)[C@H]6O[C@@H]6O[C@H](CO)[C@@H](O)[C@H](O)[C@H]6O)CC[C@@]56C[C@@]46CC[C@]23C)O1 [Compound B3, Astragaloside III]
- AUC0–12h [1, 6]: 0.03429 ± 0.00522 µM·h
- t1/2 [1, 6]: 0.33 ± 0.13 h
- Cmax [1, 6]: 54.8 ± 10.2 nM
- VSS (Vd) ([1]; rat, Kang-Ai injection 6 mL/kg iv): < 0.1 L/kg
- fe-U,0–12h (fraction of dose excreted into urine) [2]: 2.60 ± 0.69%
- bound in rat plasma ([3]; equilibrium dialysis): ~90%
- fu-plasma (unbound fraction) ([3]; equilibrium dialysis 24 h, 37 °C, 2 μmol/L alkaloids, 4 μmol/L saponins): 11.04 ± 0.86%
- At -80 °C for 48 h, Mean±SD ([4]; nominal conc. 20 nM): 19.85 ± 0.45 nM
- At -80 °C for 48 h, RE ([4]; nominal conc. 20 nM): -3.31%
- Extracted samples at 8 °C for 18 h, Mean±SD ([4]; nominal conc. 20 nM): 17.98 ± 1.29 nM
- Extracted samples at 8 °C for 18 h, RE ([4]; nominal conc. 20 nM): -14.29%
- Short-term stability at room temperature for 6 h, Mean±SD ([4]; nominal conc. 20 nM): 19.47 ± 1.70 nM
- Short-term stability at room temperature for 6 h, RE ([4]; nominal conc. 20 nM): -12.31%
- Three freeze-thaw cycles (-80 °C ↔ 23 °C), Mean±SD ([4]; nominal conc. 20 nM): 19.24 ± 0.59 nM
- Three freeze-thaw cycles (-80 °C ↔ 23 °C), RE ([4]; nominal conc. 20 nM): -6.46%
- At -80 °C for 48 h, Mean±SD ([4]; nominal conc. 100 nM): 89.68 ± 4.10 nM
- At -80 °C for 48 h, RE ([4]; nominal conc. 100 nM): -13.24%
- Extracted samples at 8 °C for 18 h, Mean±SD ([4]; nominal conc. 100 nM): 99.17 ± 12.67 nM
- Extracted samples at 8 °C for 18 h, RE ([4]; nominal conc. 100 nM): 13.54%
- Short-term stability at room temperature for 6 h, Mean±SD ([4]; nominal conc. 100 nM): 91.15 ± 3.72 nM
- Short-term stability at room temperature for 6 h, RE ([4]; nominal conc. 100 nM): -13.15%
- Three freeze-thaw cycles (-80 °C ↔ 23 °C), Mean±SD ([4]; nominal conc. 100 nM): 103.49 ± 8.05 nM
- Three freeze-thaw cycles (-80 °C ↔ 23 °C), RE ([4]; nominal conc. 100 nM): 9.29%
- At -80 °C for 48 h, Mean±SD ([4]; nominal conc. 400 nM): 431.79 ± 15.31 nM
- At -80 °C for 48 h, RE ([4]; nominal conc. 400 nM): 12.29%
- Extracted samples at 8 °C for 18 h, Mean±SD ([4]; nominal conc. 400 nM): 400.78 ± 32.83 nM
- Extracted samples at 8 °C for 18 h, RE ([4]; nominal conc. 400 nM): -8.93%
- Short-term stability at room temperature for 6 h, Mean±SD ([4]; nominal conc. 400 nM): 348.69 ± 3.47 nM
- Short-term stability at room temperature for 6 h, RE ([4]; nominal conc. 400 nM): -13.71%
- Three freeze-thaw cycles (-80 °C ↔ 23 °C), Mean±SD ([4]; nominal conc. 400 nM): 387.44 ± 17.00 nM
- Three freeze-thaw cycles (-80 °C ↔ 23 °C), RE ([4]; nominal conc. 400 nM): -6.84%

SMILES: O=c1cccc2n1C[C@H]1C[C@@H]2CN2CC[C@H](O)C[C@H]12 [Compound A5, Baptifoline]
- t1/2 [1, 6]: 2.15 ± 0.50 h
- Cmax [1, 6]: 264 ± 47.2 nM
- fe-U,0–12h (fraction of dose excreted into urine) [2]: 37.56 ± 15.13%
- fe-B,0–12h (fraction of dose excreted into bile) [5]: 10.30 ± 1.11%
